Measured values: PubChem BioAssay (NCI)
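All cell lines were grown in 96-well plates and treated with compound for 48 hours. TGI: total growth inhibition.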

Assays:
Test in all cases: inhibition of tumour cell growth, NCI panel, 48 h
OVCAR-3 ovarian = test system: OVCAR-3 ovarian
K-562 leukemia = test system: K-562 leukemia
EKVX NSCLC = test system: EKVX NSCLC
SK-MEL-28 melanoma = test system: SK-MEL-28 melanoma
SF-539 CNS = test system: SF-539 CNS
HOP-62 NSCLC = test system: HOP-62 NSCLC
SK-OV-3 ovarian = test system: SK-OV-3 ovarian
U251 CNS = test system: U251 CNS
SK-MEL-5 melanoma = test system: SK-MEL-5 melanoma
UACC-62 melanoma = test system: UACC-62 melanoma

Question: Which results are given for O=C(O)C(Cc1ccccc1)N1C(=O)c2ccccc2C1=O (centres undefined)?
Answer: TGI (OVCAR-3 ovarian): > 100 µM; TGI (K-562 leukemia): > 100 µM; TGI (EKVX NSCLC): > 100 µM; TGI (SK-MEL-28 melanoma): 30.4 µM; TGI (SF-539 CNS): > 100 µM; TGI (HOP-62 NSCLC): > 100 µM; TGI (SK-OV-3 ovarian): > 100 µM; TGI (U251 CNS): > 100 µM; TGI (SK-MEL-5 melanoma): > 100 µM; TGI (UACC-62 melanoma): > 100 µM

Question: With N=C(N)C(N=Nc1ccccc1)C(=N)N (centres undefined) as the compound, how does the TGI (OVCAR-3 ovarian) read?
Answer: > 100 µM

Question: What about the TGI (K-562 leukemia) of the same compound?
Answer: 99.1 µM

Question: And the TGI (EKVX NSCLC)?
Answer: > 100 µM

Question: What about the TGI (SK-MEL-28 melanoma) of the same compound?
Answer: > 100 µM

Question: And the TGI (SF-539 CNS)?
Answer: 38.5 µM

Question: And the TGI (HOP-62 NSCLC)?
Answer: > 100 µM

Question: And the TGI (SK-OV-3 ovarian)?
Answer: > 100 µM

Question: What about the TGI (U251 CNS) of the same compound?
Answer: > 100 µM

Question: And the TGI (SK-MEL-5 melanoma)?
Answer: > 100 µM

Question: What about the TGI (UACC-62 melanoma) of the same compound?
Answer: > 100 µM

Question: For COc1nc(C#CCCCC#N)nc(OC)n1, which TGI (OVCAR-3 ovarian) is on record?
Answer: 28 µM

Question: And the TGI (K-562 leukemia)?
Answer: > 100 µM

Question: What about the TGI (EKVX NSCLC) of the same compound?
Answer: 39.2 µM

Question: What about the TGI (SK-MEL-28 melanoma) of the same compound?
Answer: 34.8 µM

Question: And the TGI (SF-539 CNS)?
Answer: 53.7 µM

Question: And the TGI (HOP-62 NSCLC)?
Answer: 48.7 µM

Question: What about the TGI (SK-OV-3 ovarian) of the same compound?
Answer: > 100 µM

Question: And the TGI (U251 CNS)?
Answer: 26.7 µM

Question: And the TGI (SK-MEL-5 melanoma)?
Answer: 28.2 µM

Question: And the TGI (UACC-62 melanoma)?
Answer: 22.8 µM

Question: What does the source list for O=C1CC(n2cccc2)c2cc(Br)sc21 (centres undefined)?
Answer: TGI (OVCAR-3 ovarian): > 100 µM; TGI (K-562 leukemia): > 100 µM; TGI (EKVX NSCLC): > 100 µM; TGI (SK-MEL-28 melanoma): > 100 µM; TGI (SF-539 CNS): > 100 µM; TGI (HOP-62 NSCLC): > 100 µM; TGI (SK-OV-3 ovarian): > 100 µM; TGI (U251 CNS): > 100 µM; TGI (SK-MEL-5 melanoma): > 100 µM; TGI (UACC-62 melanoma): > 100 µM

Question: For CC(=O)OCCC[C@@H]1C(=C(C)C)CCC2[C@@]1(C)CC[C@@]1(C)C[C@](C)(CCC=C(C)C)CC[C@]21C (some centres undefined), which TGI (OVCAR-3 ovarian) is on record?
Answer: > 100 µM

Question: What about the TGI (EKVX NSCLC) of the same compound?
Answer: > 100 µM

Question: And the TGI (SK-MEL-28 melanoma)?
Answer: > 100 µM

Question: And the TGI (SF-539 CNS)?
Answer: > 100 µM

Question: And the TGI (HOP-62 NSCLC)?
Answer: > 100 µM

Question: What about the TGI (SK-OV-3 ovarian) of the same compound?
Answer: > 100 µM

Question: And the TGI (U251 CNS)?
Answer: > 100 µM

Question: And the TGI (SK-MEL-5 melanoma)?
Answer: > 100 µM

Question: And the TGI (UACC-62 melanoma)?
Answer: > 100 µM

Question: Which results are given for CC1=CC[C@@]2(C)[C@@H]([C@@H]1C)[C@H]1CC[C@@H]3[C@@]4(C)CC[C@H](O)C(C)(C)[C@@H]4CC[C@@]3(C)[C@]1(C)C[C@@H]2O?
Answer: TGI (OVCAR-3 ovarian): 45.5 µM; TGI (K-562 leukemia): > 100 µM; TGI (EKVX NSCLC): 23.6 µM; TGI (SK-MEL-28 melanoma): 13.9 µM; TGI (SF-539 CNS): > 55.7 µM; TGI (HOP-62 NSCLC): 38.6 µM; TGI (SK-OV-3 ovarian): > 64.7 µM; TGI (U251 CNS): 23.1 µM; TGI (SK-MEL-5 melanoma): > 62 µM; TGI (UACC-62 melanoma): > 68.8 µM

Question: Which results are given for C=CCOCCCC(=O)C(=[N+]=[N-])C(=O)OC?
Answer: TGI (OVCAR-3 ovarian): > 100 µM; TGI (K-562 leukemia): > 100 µM; TGI (SK-MEL-28 melanoma): > 100 µM; TGI (SF-539 CNS): > 100 µM; TGI (SK-OV-3 ovarian): > 100 µM; TGI (U251 CNS): > 100 µM; TGI (SK-MEL-5 melanoma): > 100 µM; TGI (UACC-62 melanoma): > 100 µM

Question: With OC(c1ccc(-c2ccccc2)cc1)(c1ccc(-c2ccccc2)cc1)c1ccc(-c2ccccc2)cc1 as the compound, how does the TGI (OVCAR-3 ovarian) read?
Answer: > 100 µM

Question: What about the TGI (K-562 leukemia) of the same compound?
Answer: > 100 µM

Question: And the TGI (EKVX NSCLC)?
Answer: > 100 µM

Question: What about the TGI (SK-MEL-28 melanoma) of the same compound?
Answer: > 100 µM

Question: And the TGI (HOP-62 NSCLC)?
Answer: > 100 µM

Question: What about the TGI (SK-OV-3 ovarian) of the same compound?
Answer: > 100 µM

Question: And the TGI (U251 CNS)?
Answer: > 100 µM

Question: And the TGI (SK-MEL-5 melanoma)?
Answer: > 100 µM

Question: What about the TGI (UACC-62 melanoma) of the same compound?
Answer: > 100 µM

Question: How did the TGI (OVCAR-3 ovarian) turn out when OC1C=C2C3CN(Cc4cc5c(cc43)OCO5)[C@H]2C[C@@H]1O (some centres undefined) was run?
Answer: > 100 µM

Question: And the TGI (K-562 leukemia)?
Answer: > 100 µM

Question: And the TGI (EKVX NSCLC)?
Answer: 28.6 µM

Question: And the TGI (SK-MEL-28 melanoma)?
Answer: > 100 µM

Question: And the TGI (SF-539 CNS)?
Answer: > 100 µM

Question: What about the TGI (HOP-62 NSCLC) of the same compound?
Answer: > 100 µM

Question: And the TGI (SK-OV-3 ovarian)?
Answer: > 100 µM

Question: And the TGI (U251 CNS)?
Answer: 50.4 µM

Question: What about the TGI (SK-MEL-5 melanoma) of the same compound?
Answer: 16.4 µM

Question: What about the TGI (UACC-62 melanoma) of the same compound?
Answer: 68.4 µM

Question: How did the TGI (OVCAR-3 ovarian) turn out when O=C1CS(=O)(=O)C(c2cccc(Oc3ccccc3)c2)N1c1cccc(Cl)c1Cl (centres undefined) was run?
Answer: 57.3 µM

Question: And the TGI (K-562 leukemia)?
Answer: 46 µM

Question: What about the TGI (EKVX NSCLC) of the same compound?
Answer: 83.7 µM

Question: And the TGI (SK-MEL-28 melanoma)?
Answer: > 100 µM

Question: And the TGI (SF-539 CNS)?
Answer: 46.6 µM

Question: And the TGI (HOP-62 NSCLC)?
Answer: > 100 µM

Question: What about the TGI (SK-OV-3 ovarian) of the same compound?
Answer: > 100 µM

Question: What about the TGI (U251 CNS) of the same compound?
Answer: 37.4 µM

Question: And the TGI (SK-MEL-5 melanoma)?
Answer: 42.6 µM

Question: What about the TGI (UACC-62 melanoma) of the same compound?
Answer: 30.7 µM

Question: Which results are given for O=C(NN1C(=O)/C(=C/c2ccc(Cl)cc2)N=C1c1ccccc1)c1c(Cl)c(Cl)c(Cl)c(Cl)c1-c1nc2ccccc2[nH]1?
Answer: TGI (OVCAR-3 ovarian): > 100 µM; TGI (K-562 leukemia): 50 µM; TGI (EKVX NSCLC): > 100 µM; TGI (SK-MEL-28 melanoma): > 100 µM; TGI (SF-539 CNS): > 100 µM; TGI (HOP-62 NSCLC): > 100 µM; TGI (SK-OV-3 ovarian): > 100 µM; TGI (SK-MEL-5 melanoma): > 100 µM; TGI (UACC-62 melanoma): 30.9 µM

Question: For O=C1c2ccccc2-c2ccc(O)cc21, which TGI (K-562 leukemia) is on record?
Answer: 94.7 µM

Question: What about the TGI (EKVX NSCLC) of the same compound?
Answer: 37.8 µM

Question: And the TGI (SK-MEL-28 melanoma)?
Answer: 45.8 µM

Question: What about the TGI (SF-539 CNS) of the same compound?
Answer: 52.8 µM

Question: What about the TGI (HOP-62 NSCLC) of the same compound?
Answer: > 100 µM

Question: And the TGI (U251 CNS)?
Answer: 70.3 µM

Question: And the TGI (SK-MEL-5 melanoma)?
Answer: 45.4 µM

Question: What about the TGI (UACC-62 melanoma) of the same compound?
Answer: 30.9 µM

Question: What does the source list for O=C1CCC(NC(=O)Cc2ccc(O)cc2)C(=O)N1 (centres undefined)?
Answer: TGI (OVCAR-3 ovarian): > 2500 µM; TGI (EKVX NSCLC): > 2500 µM; TGI (SK-MEL-28 melanoma): > 2500 µM; TGI (SK-OV-3 ovarian): > 2500 µM; TGI (U251 CNS): > 2500 µM; TGI (SK-MEL-5 melanoma): > 2500 µM; TGI (UACC-62 melanoma): > 2500 µM

Question: CN(C)CCNc1c([N+](=O)[O-])cc2c3c(cccc13)C(=O)N(CCN(C)C)C2=O was tested. Which TGI (OVCAR-3 ovarian) did it give?
Answer: 5.44 µM

Question: What about the TGI (K-562 leukemia) of the same compound?
Answer: 4.51 µM

Question: And the TGI (EKVX NSCLC)?
Answer: 4.37 µM

Question: And the TGI (SK-MEL-28 melanoma)?
Answer: 12.9 µM

Question: And the TGI (SF-539 CNS)?
Answer: 8.29 µM

Question: And the TGI (HOP-62 NSCLC)?
Answer: 8.49 µM

Question: What about the TGI (SK-OV-3 ovarian) of the same compound?
Answer: 7.51 µM

Question: And the TGI (U251 CNS)?
Answer: 6.44 µM

Question: And the TGI (SK-MEL-5 melanoma)?
Answer: 4.32 µM

Question: And the TGI (UACC-62 melanoma)?
Answer: 3.35 µM

Question: For N#CCc1[nH]nc2nc(SCc3ccccc3)nc(N3CCCCC3)c12, which TGI (OVCAR-3 ovarian) is on record?
Answer: 37.4 µM

Question: And the TGI (K-562 leukemia)?
Answer: 34.6 µM

Question: And the TGI (EKVX NSCLC)?
Answer: 39.5 µM

Question: What about the TGI (SK-MEL-28 melanoma) of the same compound?
Answer: 45.8 µM

Question: And the TGI (SF-539 CNS)?
Answer: 37.8 µM

Question: What about the TGI (HOP-62 NSCLC) of the same compound?
Answer: 35.5 µM

Question: And the TGI (SK-OV-3 ovarian)?
Answer: 45.7 µM

Question: And the TGI (U251 CNS)?
Answer: 35.2 µM

Question: What about the TGI (SK-MEL-5 melanoma) of the same compound?
Answer: 32.8 µM

Question: With CCN(CC)/C(=C\Cl)Nc1ccccn1 as the compound, how does the TGI (OVCAR-3 ovarian) read?
Answer: > 100 µM

Question: And the TGI (K-562 leukemia)?
Answer: > 100 µM

Question: And the TGI (EKVX NSCLC)?
Answer: > 100 µM

Question: What about the TGI (SK-MEL-28 melanoma) of the same compound?
Answer: > 100 µM

Question: What about the TGI (SF-539 CNS) of the same compound?
Answer: > 100 µM

Question: What about the TGI (HOP-62 NSCLC) of the same compound?
Answer: > 100 µM

Question: And the TGI (SK-OV-3 ovarian)?
Answer: > 100 µM

Question: And the TGI (U251 CNS)?
Answer: > 100 µM

Question: What about the TGI (SK-MEL-5 melanoma) of the same compound?
Answer: > 100 µM

Question: And the TGI (UACC-62 melanoma)?
Answer: > 100 µM

Question: Which results are given for S=C(NCCCCCCNC(=S)Nc1c2ccccc2nc2ccccc12)Nc1c2ccccc2nc2ccccc12?
Answer: TGI (OVCAR-3 ovarian): > 100 µM; TGI (K-562 leukemia): > 100 µM; TGI (EKVX NSCLC): > 100 µM; TGI (SK-MEL-28 melanoma): > 100 µM; TGI (SF-539 CNS): 99.9 µM; TGI (HOP-62 NSCLC): > 100 µM; TGI (SK-OV-3 ovarian): > 100 µM; TGI (U251 CNS): > 100 µM; TGI (SK-MEL-5 melanoma): > 100 µM; TGI (UACC-62 melanoma): > 100 µM
